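Cultured in 96-well plates, cells were exposed to test compound for 48 hours across five concentrations. GI50 = concentration required for 50% inhibition of growth. TGI is the concentration that stops growth completely.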
What was measured:
Assay in all cases: growth of human tumour cells (NCI), 48 h
SK-MEL-28 melanoma = test system: SK-MEL-28 melanoma
MDA-N = test system: MDA-N
NCI-H226 lung = test system: NCI-H226 lung
OVCAR-4 ovarian = test system: OVCAR-4 ovarian
SR leukemia = test system: SR leukemia
NCI-H460 lung = test system: NCI-H460 lung
NCI-H522 lung = test system: NCI-H522 lung
HL-60(TB) leukemia = test system: HL-60(TB) leukemia
IGROV1 ovarian = test system: IGROV1 ovarian
DU-145 prostate = test system: DU-145 prostate

| SMILES | TGI (SK-MEL-28 melanoma) [µM] | TGI (MDA-N) [µM] | TGI (NCI-H226 lung) [µM] | TGI (OVCAR-4 ovarian) [µM] | TGI (SR leukemia) [µM] | TGI (NCI-H460 lung) [µM] | TGI (NCI-H522 lung) [µM] | TGI (HL-60(TB) leukemia) [µM] | TGI (IGROV1 ovarian) [µM] | TGI (DU-145 prostate) [µM] | GI50 (IGROV1 ovarian) [µM] | GI50 (SK-MEL-28 melanoma) [nM] | GI50 (MDA-N) [nM] | GI50 (HL-60(TB) leukemia) [nM] |
| --- | --- | --- | --- | --- | --- | --- | --- | --- | --- | --- | --- | --- | --- | --- |
| NC(CC(O)(c1ccccc1)c1ccccc1)c1ccccc1S (centres undefined) | 31.5 | 30.4 | 29.8 | 29.7 | > 100 | 38.3 | 30.3 | 59.5 |  |  |  |  |  |  |
| CN(C)c1ccc(/C=C/C(=O)O)cc1 |  |  | > 100 |  |  | > 100 | > 100 | > 100 | > 100 |  |  |  |  |  |
| Cn1ccnc1CCc1ccc(Cl)c(Cl)c1 | > 100 |  | > 100 | > 100 | > 100 | > 100 | > 100 | > 100 | > 100 |  |  |  |  |  |
| COc1c(C)c(C/C=C(\C)CC/C=C(\C)CC/C=C(\C)CCC=C(C)C)c(OC)c2ccccc12 |  | > 100 |  | > 100 | 90.6 | > 100 | > 100 |  | > 100 | > 100 |  |  |  |  |
| C[n+]1c2ccccc2c(/C=N\NS(=O)(=O)c2ccc(Cl)cc2)c2ccccc21 | > 100 |  | > 100 | > 100 |  | > 100 | > 100 | 88.4 | > 100 |  |  |  |  |  |
| Nc1nc(=O)n(C2OC(CO)C(O)C2O)c2ncc(-c3ccc(-c4ccccc4)cc3)nc12 (centres undefined) |  | > 100 | 76.3 | > 100 | > 100 | > 100 | > 100 |  | > 100 | > 100 |  |  |  |  |
| COc1ccc2[nH]c(C(=O)N3CC(CCl)c4c3cc(N)c3ccccc43)cc2c1 (centres undefined) |  | < 0.01 | < 0.0225 | < 0.01 |  |  |  | < 0.01 | 18.2 | < 0.01 |  |  |  |  |
| CCOc1ccc(/C=C2\NC(=S)N(/C=C3\C(=O)Oc4ccccc4C3=O)C2=O)cc1 | 83.9 |  | 45.7 | 66.5 |  | 51.8 | 51.2 | 33.7 | 61.7 | 57.7 |  |  |  |  |
| COC(=O)NC(Cc1ccccc1)NC(C)=O (centres undefined) | > 100 | > 100 |  | > 100 | > 100 | > 100 | > 100 | > 100 | > 100 | > 100 |  |  |  |  |
| O=[N+]([O-])c1ccc(N2N=C(c3ccc4ccccc4c3O)CC2c2ccc(Cl)cc2)c([N+](=O)[O-])c1 (centres undefined) | > 100 | 30.8 | > 100 | > 100 | 40.6 | > 100 | 62.4 |  | > 100 | > 100 |  |  |  |  |
| O=C(c1ccc(O)c([N+](=O)[O-])c1)c1ccc(O)c([N+](=O)[O-])c1 | > 100 | > 100 | > 100 | > 100 |  | > 100 | > 100 |  | > 100 | > 100 |  |  |  |  |
| CCOC(=O)CCC(NC(=O)Cc1ccc(Oc2nc3ccccc3nc2-c2ccccc2)cc1)C(=O)OCC (centres undefined) | > 100 | > 100 | 78.9 | > 100 | > 100 | > 100 | > 100 | > 100 |  | > 100 |  |  |  |  |
| C=Cc1nc(C#N)c(N)o1 | > 100 | > 100 | > 100 | > 100 |  | > 100 | > 100 | > 100 | > 100 | > 100 |  |  |  |  |
| CC(=O)Oc1cc(OC(C)=O)c2c(C)cc(=O)oc2c1 | > 100 | > 100 | > 100 | > 100 | > 100 |  |  |  | > 100 | > 100 |  |  |  |  |
| CCCN(CCC)C1CCc2c(ccc3cc[nH]c23)C1 (centres undefined) | 89.4 | > 100 | > 100 | > 100 | 73.3 | > 100 | > 100 |  | > 100 | > 100 |  |  |  |  |
| CCOC(=O)c1[nH]c2cccc3c2c1CC[C@H](NC(=O)C(F)(F)F)C3=O | 0.0458 | > 100 | > 100 | 80.5 | > 100 | > 100 |  | > 100 | > 100 | > 100 |  |  |  |  |
| CC1=CCC[C@H]2[C@](C)(CC3=CC(=O)C(Sc4ccccc4)=CC3=O)[C@@H](C)CC[C@]12C | 35.7 | 32.4 | 27.8 | 43.7 | 48.3 | 42.9 |  |  | 30.4 | 47.4 | 16.2 |  |  |  |
| O=[N+]([O-])c1ccc([N+]2=NC(c3ccccc3)=NN(c3ccccc3)C2)cc1 | > 100 |  | > 100 | > 100 | > 100 | > 100 | > 100 | > 100 | > 100 |  |  |  |  |  |
| CC(=O)OC(C)c1cc2c(s1)C(=O)c1c(C(C)OC(C)=O)csc1C2=O (centres undefined) | 3.27 | 0.382 | 3.62 | 2.75 | > 100 | 1.58 |  | 2.15 | 3.28 | 1.86 |  | 1650 | 214 | 68.2 |
| COc1cccc(-c2nccc3c(OCc4ccccc4)c(OC)c(OC)cc23)c1 |  |  | > 100 |  | > 100 |  | > 100 | > 100 | > 100 |  |  |  |  |  |
| N[C@H](CCC(=O)NCP(=O)(O)O)C(=O)O | > 100 | > 100 |  |  | > 100 | > 100 | > 100 | > 100 | > 100 |  |  |  |  |  |
| N#CC[N+]1(Cc2ccccn2)CCCC1 | > 100 | > 100 | > 100 | > 100 |  | > 100 | > 100 | > 100 | > 100 | > 100 |  |  |  |  |
| COc1ccc2c(c1)c1nn(CCN3CCCCC3)c3ccc4c(=O)n(CCN(C)C)c(=O)n2c4c13 | 0.596 | 0.117 | 0.243 | 0.0158 |  | < 0.0216 | < 0.0341 | 0.511 | < 0.0174 | 0.132 |  |  |  |  |
| O=C(O)CNC(=O)c1ccc2cc(C(=O)N3CC(CCl)c4ccc([N+](=O)[O-])cc43)[nH]c2c1 (centres undefined) |  | > 100 | > 100 | > 100 | > 100 | > 100 | > 100 | > 100 | > 100 | > 100 |  |  |  |  |

Source: PubChem BioAssay (NCI)
